# Results from patent US20240189289A1, “INHIBITORS OF EPHB3 SIGNALING” (The Brigham and Women`s Hospital, Inc., priority 2021, published 2024).
# Tested on: EAE in C57BL/6 mice
# Test: EAE in C57BL/6 mice (MOG35-55)
# Format: in vivo, mouse
# Procedure: EAE. EAE was induced in 8-10 week old female C57BL/6 or NOD by subcutaneous immunization with 150 μg MOG35-55 (#110582, Genemed Synthesis) emulsified in 200 μL of complete Freund's adjuvant per mouse, followed by administration of 200 ng pertussis toxin (#180, List biological Laboratories) on days 0 and 2 as described. […] EAE was assessed as follows: 0, no signs of disease; 1, loss of tone in the tail; 2, hind limb paresis; 3, hind limb paralysis; 4, tetraplegia; 5, moribund.
# Mononuclear cells. Mononuclear cells, including astrocytes, monocytes, and microglia, were isolated from the CNS as described. Briefly, mice were perfused with 1×PBS and the isolated brain and spinal cords were homogenized with a razor blade, digested in 0.66 mg/mL papain (#P4762, Sigma-Aldrich) for 15 minutes at 37° C. and subsequently 15 minutes with 0.66 mg/mL Collagenase D (#11088858001, Roche) and 8 U/mL DNase I (#90083, Thermo Fisher Scientific). Samples where then homogenized and filtered through a 70 µm cell strainer and resuspended in 30% Percoll TM solution (#17-5445-01, GE Healthcare) overlayed by 1×PBS for myelin removal. Isolated mononuclear CNS cells were washed with 1×PBS and stained with fluorochrome-conjugated antibody to FITC anti-CD11b (Cat #11-0112-85, eBioscience), APC anti-CD45 (Cat #17-0451-83, eBioscience), BV421 anti-Ly-6C (Cat #128031, Biolegend), PE anti-mouse CD45R/B220 (Cat #553089, BD Biosciences), PE anti-CD140a (Cat #12-1401-81, eBioscience), PE anti-CD105 (Cat #12-1051-82, eBioscience), PE anti-04 (Cat #FAB1326P, R&D), PE anti-Ly-6G (Cat #127608, BioLegend) and PE anti-mouse TER-119 (Cat #116207, BioLegend). Microglia were sorted as CD11b^+CD45^lo Ly6C1^lo, inflammatory monocytes were considered as CD45^hiCD11b^+Ly6C1^hi. Astrocytes were sorted as CD11b^loCD45^lo Ly6C^loCD105^lo CD140a^lo CD11b^loTer119^loCD19^lo after the exclusion of erythrocytes, lymphocytes, microglia, oligodendrocytes, and monocytes. FACSAria IIU (BD Biosciences) was used for cell sorting.
# Analysis of T cells. For T-cell flow cytometry analysis, CNS single-cell suspensions or splenocytes were stimulated with 50 ng/mL phorbol 12-myristate 13-acetate (PMA, #P1585, Sigma-Aldrich), 1 μM ionomycin (#I9657, Sigma-Aldrich), GolgiSTOP and (#554724, BD Biosciences, 1:1500) GolgiPLUG (#555029, BD Biosciences, 1:1500) in RPMI 1640 medium (#11875119, Life Technologies) containing 10% FBS (#10438026, GIBCO), penicillin/streptomycin (#15140122, GIBCO, 1:100) for 4 h at 37° C. in a 5% CO2 incubator. Following stimulation, T cells were stained with antibodies against surface markers, and thereafter fixed and stained with antibody against intracellular target protein with an intracellular antibody labeling kit following its instructions (#00-5523, eBioscience).
# RNA-sequencing. Sorted astrocytes or microglia were re-suspended in extraction buffer of Picopure RNA isolation kit (KIT0204, Thermo Fisher) and after 30 min incubation at 42° C. samples were extracted following manufacturer's instructions with on-column DNase I digestion (QIAGEN, #79254). RNA was suspended in 10 μl of nuclease free water and 5 μl were sent for SMARTseq sequencing by the Broad Technology Labs and the Broad Genomics Platform. Processed RNA-Seq data was filtered, removing genes with low read counts. Read counts were normalized using TMM normalization and CPM (counts per million) were calculated to create a matrix of normalized expression values.
# H&E, LFB and silver staining. Transverse sections from lumbar spinal cords of EAE mice at the end of the experiment were fixed in 4% paraformaldehyde, pH 7.4, embedded in paraffin and cut at 10-μm thickness. Sections were stained with Hematoxylin and Eosin, Luxol fast blue, or silver nitrate. Images were acquired by using a Zeiss Axioskop2 plus microscope with AxioCam HRC and AxioVision software and analyzed by using ImageJ software. […]
# [1] = 20 mg/kg from the peak of the disease
# [2] = daily intraperitoneal injections
structure (smiles),measurement,setting,value
O=C(Nc1ccccc1Cl)c1cnc2ccc(C3CCNCC3)cn12 [A38],T-cell response,[1],did not affect T-cell response
same,astrocyte and microglial expression of transcriptional modules associated with CNS inflammation and neurodegeneration (RNA-seq),[1],decreased
same,axonal loss (histopathology),[1],"reduced demyelination, and axonal loss"
same,demyelination (histopathology),[1],reduced demyelination
same,recruitment of Ly6C^Hi pro-inflammatory monocytes to the CNS,[1],reduced the recruitment
same,EAE clinical scores,20 mg/kg i.p. twice a day from the peak of the disease,"ameliorated EAE, as indicated by the reduction in clinical scores"
same,expression of genes related to ROS metabolic processes in astrocytes isolated from treated EAE mice,FIG. 5D,a decrease in the expression
same,therapeutic effects of A38 concomitant with EphB3 knockdown in astrocytes,compared with either intervention alone,did not further increase the therapeutic effects
same,T cell counts in the spleen,[2],unchanged
same,pro-inflammatory monocytes in the CNS,[2],decrease
same,"course of EAE, preventive treatment",daily intraperitoneal injections from day 3 (priming phase),did not alter the course of EAE
same,"clinical course of EAE, treatment during the chronic phase",daily intraperitoneal injections from day 21,ameliorated the clinical course significantly
same,IFN-γ and IL-17 producing T cells in the CNS,"daily intraperitoneal injections, chronic phase",significant decrease
